Measurements as given in US20260295053A1, “COMPOUNDS FOR DEGRADATION AND INHIBITION OF KRAS (G12D) PROTEIN” (Shenzhen Ionova Life Science Co., Ltd., priority 2023, published 2026).

Target: T1, KRAS (G12D) (Homo sapiens, UniProt P01116, G12D)
T1 construct: in-cell western with KRAS G12D antibody after 24 h
Assay: KRAS (G12D) cellular degradation assay in AsPC-1 cells
Assay type: cell-based
Details: 24 hours, antibody fluorescence (Odyssey CLX), DC50 half-maximal degradation concentration
Method in brief: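 Half-maximal degradation (DC50) and inhibition (IC50) concentrations are fitted from dose-response curves spanning […] to 1.5 nM final. KRAS G12D loss is measured by fluorescent antibody staining with β-actin reference after 24 h; growth is measured by ATP luminescence after a 6-day exposure.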

T1 sequence (P01116 1-188 isoform P01116-2 G12D): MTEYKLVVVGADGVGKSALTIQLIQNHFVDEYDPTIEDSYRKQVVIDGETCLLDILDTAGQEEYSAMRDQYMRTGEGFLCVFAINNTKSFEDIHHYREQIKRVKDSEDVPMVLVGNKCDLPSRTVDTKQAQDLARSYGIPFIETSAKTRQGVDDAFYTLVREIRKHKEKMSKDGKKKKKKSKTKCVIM

## CCn1nccc1-c1ccc([C@H](CO)NC(=O)[C@@H]2C[C@@H](O)CN2C(=O)[C@H](C(C)C)n2cc(-c3ccc(COc4c(-c5c(C)c(F)cc6[nH]ncc56)c(C5CC5)cc5c(N(C)C[C@H]6CCCN6)nc(OC[C@H](C)OC)nc45)cc3)nn2)cc1 [Example 218, (2S,4R)-1-((2S)-2-(4-(4-(((6-cyclopropyl-7-(6-fluoro-5-methyl-1H-indazol-4-yl)-2-((S)-2-methoxypropoxy)-4-(methyl(((R)-pyrrolidin-2-yl)methyl)amino)quinazolin-8-yl)oxy)methyl)phenyl)-1H-1,2,3-triazol-1-yl)-3-methylbutanoyl)-N—((R)-1-(4-(1-ethyl-1H-pyrazol-5-yl)phenyl)-2-hydroxyethyl)-4-hydroxypyrrolidine-2-carboxamide]
  DC50: > 1000 nM

## CO[C@@H](C)COc1nc(N2CCCNCC2)c2cc(C3CC3)c(-c3c(C)c(F)cc4[nH]ncc34)c(OCc3ccc(-c4cn([C@H](C(=O)N5C[C@H](O)C[C@H]5C(=O)N[C@@H](CO)c5ccc(-c6scnc6C)c6c5CC6)C(C)C)nn4)cc3)c2n1 [Example 219, (2S,4R)-1-((2S)-2-(4-(4-(((6-cyclopropyl-4-(1,4-diazepan-1-yl)-7-(6-fluoro-5-methyl-1H-indazol-4-yl)-2-((S)-2-methoxypropoxy)quinazolin-8-yl)oxy)methyl)phenyl)-1H-1,2,3-triazol-1-yl)-3-methylbutanoyl)-4-hydroxy-N—((R)-2-hydroxy-1-(5-(4-methylthiazol-5-yl)bicyclo[4.2.0]octa-1(6),2,4-trien-2-yl)ethyl)pyrrolidine-2-carboxamide]
  DC50: < 10 nM

## CCn1nccc1-c1ccc([C@@H](NC(=O)[C@@H]2C[C@@H](O)CN2C(=O)[C@H](C(C)C)n2cc(-c3ccc(COc4c(-c5c(C)c(F)cc6[nH]ncc56)c(C5CC5)cc5c(N(C)[C@@H]6CCNC6)nc(O[C@H]6C[C@H](OC)C6)nc45)cc3)nn2)[C@H](C)O)cc1F [Example 220, (2S,4R)-1-((2S)-2-(4-(4-(((6-cyclopropyl-7-(6-fluoro-5-methyl-1H-indazol-4-yl)-2-((1r,3R)-3-methoxycyclobutoxy)-4-(methyl((R)-pyrrolidin-3-yl)amino)quinazolin-8-yl)oxy)methyl)phenyl)-1H-1,2,3-triazol-1-yl)-3-methylbutanoyl)-N-((1R,2S)-1-(4-(1-ethyl-1H-pyrazol-5-yl)-3-fluorophenyl)-2-hydroxypropyl)-4-hydroxypyrrolidine-2-carboxamide]
  DC50: < 10 nM

## CO[C@@H](C)COc1nc(N2CCCNCC2)c2cc(C3CC3)c(-c3c(C)c(F)cc4[nH]ncc34)c(OCc3ccc(-c4cn([C@H](C(=O)N5C[C@H](O)C[C@H]5C(=O)N[C@H](CO)c5ccc(-c6scnc6C)c6c5CC6)C(C)C)nn4)cc3)c2n1 [Example 221, (2S,4R)-1-((2S)-2-(4-(4-(((6-cyclopropyl-4-(1,4-diazepan-1-yl)-7-(6-fluoro-5-methyl-1H-indazol-4-yl)-2-((S)-2-methoxypropoxy)quinazolin-8-yl)oxy)methyl)phenyl)-1H-1,2,3-triazol-1-yl)-3-methylbutanoyl)-4-hydroxy-N—((S)-2-hydroxy-1-(5-(4-methylthiazol-5-yl)bicyclo[4.2.0]octa-1(6),2,4-trien-2-yl)ethyl)pyrrolidine-2-carboxamide]
  DC50: 100 to 1000 nM

## CCn1nccc1-c1ccc([C@H](CO)NC(=O)[C@@H]2C[C@@H](O)CN2C(=O)[C@H](C(C)C)n2cc(-c3ccc(COc4c(-c5c(C)c(F)cc6[nH]ncc56)c(C5CC5)cc5c(N6C[C@H]7CN[C@H](C7)C6)nc(OC[C@H](C)OC)nc45)cc3)nn2)cc1 [Example 222, (2S,4R)-1-((2S)-2-(4-(4-(((4-((1R,5R)-3,6-diazabicyclo[3.2.1]octan-3-yl)-6-cyclopropyl-7-(6-fluoro-5-methyl-1H-indazol-4-yl)-2-((S)-2-methoxypropoxy)quinazolin-8-yl)oxy)methyl)phenyl)-1H-1,2,3-triazol-1-yl)-3-methylbutanoyl)-N—((R)-1-(4-(1-ethyl-1H-pyrazol-5-yl)phenyl)-2-hydroxyethyl)-4-hydroxypyrrolidine-2-carboxamide]
  DC50: 10 to 100 nM

## CO[C@@H](C)COc1nc(N2C[C@H]3CN[C@H](C3)C2)c2cc(C3CC3)c(-c3c(C)c(F)cc4[nH]ncc34)c(OCc3ccc(-c4cn([C@H](C(=O)N5C[C@H](O)C[C@H]5C(=O)N[C@@H](CO)c5ccc(-c6scnc6C)cc5)C(C)C)nn4)cc3)c2n1 [Example 223, (2S,4R)-1-((2S)-2-(4-(4-(((4-((1R,5R)-3,6-diazabicyclo[3.2.1]octan-3-yl)-6-cyclopropyl-7-(6-fluoro-5-methyl-1H-indazol-4-yl)-2-((S)-2-methoxypropoxy)quinazolin-8-yl)oxy)methyl)phenyl)-1H-1,2,3-triazol-1-yl)-3-methylbutanoyl)-4-hydroxy-N—((R)-2-hydroxy-1-(4-(4-methylthiazol-5-yl)phenyl)ethyl)pyrrolidine-2-carboxamide]
  DC50: 10 to 100 nM

## CCn1nccc1-c1ccc([C@H](CO)NC(=O)[C@@H]2C[C@@H](O)CN2C(=O)[C@H](C(C)C)n2cc(-c3ccc(COc4c(-c5c(C)c(F)cc6[nH]ncc56)c(C5CC5)cc5c(N6CCCNCC6)nc(OC[C@H](C)OC)nc45)cc3)nn2)c2c1CC2 [Example 224, (2S,4R)-1-((2S)-2-(4-(4-(((6-cyclopropyl-4-(1,4-diazepan-1-yl)-7-(6-fluoro-5-methyl-1H-indazol-4-yl)-2-((S)-2-methoxypropoxy)quinazolin-8-yl)oxy)methyl)phenyl)-1H-1,2,3-triazol-1-yl)-3-methylbutanoyl)-N—((R)-1-(5-(1-ethyl-1H-pyrazol-5-yl)bicyclo[4.2.0]octa-1(6),2,4-trien-2-yl)-2-hydroxyethyl)-4-hydroxypyrrolidine-2-carboxamide]
  DC50: < 10 nM

## CCn1nccc1-c1ccc([C@H](CO)NC(=O)[C@@H]2C[C@@H](O)CN2C(=O)[C@H](C(C)C)n2cc(-c3ccc(COc4c(-c5c(C)c(F)cc6[nH]ncc56)c(C5CC5)cc5c(N6CCC(N)CC6)nc(OC[C@H](C)OC)nc45)cc3)nn2)cc1 [Example 225, (2S,4R)-1-((2S)-2-(4-(4-(((4-(4-aminopiperidin-1-yl)-6-cyclopropyl-7-(6-fluoro-5-methyl-1H-indazol-4-yl)-2-((S)-2-methoxypropoxy)quinazolin-8-yl)oxy)methyl)phenyl)-1H-1,2,3-triazol-1-yl)-3-methylbutanoyl)-N—((R)-1-(4-(1-ethyl-1H-pyrazol-5-yl)phenyl)-2-hydroxyethyl)-4-hydroxypyrrolidine-2-carboxamide]
  DC50: < 10 nM

## CCn1nccc1-c1ccc([C@H](CO)NC(=O)[C@@H]2C[C@@H](O)CN2C(=O)[C@H](C(C)C)n2cc(-c3ccc(COc4c(-c5c(C)c(F)cc6[nH]ncc56)c(C5CC5)cc5c(N6CCC(NC(C)=O)CC6)nc(OC[C@H](C)OC)nc45)cc3)nn2)cc1 [Example 226, (2S,4R)-1-((2S)-2-(4-(4-(((4-(4-acetamidopiperidin-1-yl)-6-cyclopropyl-7-(6-fluoro-5-methyl-1H-indazol-4-yl)-2-((S)-2-methoxypropoxy)quinazolin-8-yl)oxy)methyl)phenyl)-1H-1,2,3-triazol-1-yl)-3-methylbutanoyl)-N—((R)-1-(4-(1-ethyl-1H-pyrazol-5-yl)phenyl)-2-hydroxyethyl)-4-hydroxypyrrolidine-2-carboxamide]
  DC50: 10 to 100 nM
